Tests used:
[1] = tested on: caspase-3; experiment: Cleavage of caspase-3 in HT1080 cells; type: cell-based, human; conditions: 2.5 μM
Method: (§1) A. Effect of irestatin 9389 on PERK and ATF6 pathways. HT1080 cells were treated with vehicle alone (lanes 1-4) or 2.5 μM irestatin 9389 (lanes 5-8) and cultured under aerobic conditions for 18 hours (N) or shifted to hypoxia for the indicated times. Protein lysates were analyzed by Western blot analysis using antisera specific for ATF6 (top), CHOP/GADD153 (middle) or actin (bottom). Arrow indicates the cleaved, transcriptionally active form of ATF6. B. Cleavage of caspase-3 in irestatin-treated cells under hypoxia. HT1080 cells were cultured in normoxia (N) or under hypoxia for 36 hours (H 36) in absence or presence of irestatin 9389 (2.5 μM). Arrows indicate proteolytically cleaved caspase-3. C. Colony formation assay. HT1080 cells were treated as in B under normoxia (N) or hypoxia for 48 hours (H 48). Cells were harvested, counted, and allowed to grow under normal culture conditions for 11-12 days. Colonies were visualized with crystal violet staining. D. Quantification of clonogenic survival assay. Values represent the mean+/−SEM from at least 4 independent experiments. E. TUNEL staining of cells treated as in C. F. Quantification of TUNEL-positive cells. Values represent the mean+/−SEM from at least 3 experiments. […] Cells were harvested at the indicated times and counted by hemocytometer. Values represent the mean calculated from triplicate experiments +/−SEM. […]

[2] = tested on: HT1080 fibrosarcoma; experiment: Cell proliferation assay, HT1080; type: cell-based, human; conditions: same concentrations
Method: as §1

Cc1csc(NC(=O)CSc2nc3c(c(C(F)(F)F)c2C#N)CCC3)n1 [Compound 9389]
cleavage of caspase-3 under hypoxia ([1]; 36 hours of hypoxia): stimulated cleavage of caspase-3
caspase-3 processing under normal oxygen ([1]; normal oxygen conditions): no effect on caspase-3 processing
growth rate of HT1080 cells under normal conditions [2]: negligible effect

From US20090291857A1, “METHODS TO IDENTIFY INHIBITORS OF THE UNFOLDED PROTEIN RESPONSE” (THE BOARD OF TRUSTEES OF THE LELAND STANFORD JUNIOR …, priority 2006, published 2009)
